Experimental data from PMC8498107 (Frontiers in Molecular Neuroscience, 2021).

What was measured:
[1] = target: T1, GlyR α1β (wild-type) + eGFP-gephyrin (Homo sapiens, UniProt P23415+P48167); type: cell-based
T1 construct: Full-length cDNAs encoding the human wild-type (WT) or mutated GlyR β variants; expressed in transfected cells; host or cells: HEK-293
Experimental: (§1) Full-length cDNAs encoding the human wild-type (WT) or mutated GlyR β variants (β^x) (with x = Y252S, S321F, and A455P) were cloned into the eukaryotic expression vector pRK5 (gift from †P. Seeburg, Heidelberg) and mutagenesis was performed as previously described ([James et al., 2013]). GlyR β variants were further subcloned into pRK5 harboring a myc-epitope at the N-terminus 5′ of residues ^1KEKS^4 representing the first amino acids of the mature GlyR β sequence. eGFP-gephyrin constructs were previously described ([Harvey et al., 2004]). All expression constructs were fully sequenced to verify successful mutagenesis.
(§2) HEK-293 cells were transiently transfected using a modified calcium-phosphate precipitation method. Transfection was performed at a confluency of 50–75%, 24 h after seeding of 200,000 cells on glass cover slips in 35 mm culture dishes or 1.5 × 10^6 cells per 10 cm dish. For 35 mm and 10 cm culture dishes GlyR α1, GlyR β or GlyR β variants and eGFP-gephyrin were transfected in a ratio of cDNAs 1:10:5, e.g., 0.2 μg α1, 2 μg β, and 1 μg of eGFP-gephyrin for 35 mm dishes. To label cellular compartments, low copy number vectors were used to exclude effects from overexpression [1 μg; dsRed MEM = fusion of sequence from neuromodulin (GAP-43) and dsRed to label the plasma membrane or dsRed ER = fusion construct of dsRed and calreticulin sequence to label the ER]. The DNA was supplied with 2.5 M CaCl2, 0.1x TE buffer and 2x HBS buffer (50 mM HEPES, 12 mM glucose, 10 mM KCl, 280 mM NaCl, 1.5 mM Na2HPO4) mixed and incubated for 20 min at room temperature. The medium was exchanged after 4–6 h and cells were used for experiments 24–48 h after transfection.
(§3) Electrophysiological characterization was performed on transfected HEK-293 cells using the patch-clamp method for whole cell recordings. Experiments were performed at room temperature. […] Current responses were amplified with an EPC-9 amplifier (HEKA Elektronik GmbH, Lambrecht/Pfalz, Germany) and measured at a holding potential of −60 mV using PatchMaster Next software (HEKA Elektronik GmbH, Lambrecht/Pfalz, Germany).

[2] = target: T2, GlyR α1β^S321F + eGFP-gephyrin (Homo sapiens, UniProt P23415+P48167, S343F); type: cell-based
T2 construct: Full-length cDNAs encoding the human wild-type (WT) or mutated GlyR β variants; expressed in transfected cells; host or cells: HEK-293
Experimental: as §1, §2, §3

[3] = target: T3, GlyR α1β (wild-type) (Homo sapiens, UniProt P23415+P48167); type: cell-based
T3 construct: Full-length cDNAs encoding the human wild-type (WT) or mutated GlyR β variants; expressed in transfected cells; host or cells: HEK-293
Experimental: as §1, §2, §3

[4] = target: T4, GlyR α1β^A455P (Homo sapiens, UniProt P23415+P48167, A477P); type: cell-based
T4 construct: Full-length cDNAs encoding the human wild-type (WT) or mutated GlyR β variants; expressed in transfected cells; host or cells: HEK-293
Experimental: as §1, §2, §3

[5] = target: T5, GlyR α1β^A455P + eGFP-gephyrin (Homo sapiens, UniProt P23415+P48167, A477P); type: cell-based
T5 construct: Full-length cDNAs encoding the human wild-type (WT) or mutated GlyR β variants; expressed in transfected cells; host or cells: HEK-293
Experimental: as §1, §2, §3

[6] = target: T6, GlyR α1β^Y252S + eGFP-gephyrin (Homo sapiens, UniProt P23415+P48167, Y274S); type: cell-based
T6 construct: Full-length cDNAs encoding the human wild-type (WT) or mutated GlyR β variants; expressed in transfected cells; host or cells: HEK-293
Experimental: as §1, §2, §3

[7] = target: T7, GlyR α1β^S321F (Homo sapiens, UniProt P23415+P48167, S343F); type: cell-based
T7 construct: Full-length cDNAs encoding the human wild-type (WT) or mutated GlyR β variants; expressed in transfected cells; host or cells: HEK-293
Experimental: as §1, §2, §3

[8] = target: T8, GlyR α1β^Y252S (Homo sapiens, UniProt P23415+P48167, Y274S); type: cell-based
T8 construct: Full-length cDNAs encoding the human wild-type (WT) or mutated GlyR β variants; expressed in transfected cells; host or cells: HEK-293
Experimental: as §1, §2, §3

[9] = target: T9, GlyR α1 homomers (Homo sapiens, UniProt P23415); test: picrotoxinin block of the glycine-gated response, whole-cell patch-clamp in HEK-293 cells; type: cell-based; conditions: 100 μM glycine + 100 μM picrotoxinin compared to 100 μM glycine alone
T9 construct: expressed in transfected cells; host or cells: HEK-293
T9 sequence (P23415 29-457): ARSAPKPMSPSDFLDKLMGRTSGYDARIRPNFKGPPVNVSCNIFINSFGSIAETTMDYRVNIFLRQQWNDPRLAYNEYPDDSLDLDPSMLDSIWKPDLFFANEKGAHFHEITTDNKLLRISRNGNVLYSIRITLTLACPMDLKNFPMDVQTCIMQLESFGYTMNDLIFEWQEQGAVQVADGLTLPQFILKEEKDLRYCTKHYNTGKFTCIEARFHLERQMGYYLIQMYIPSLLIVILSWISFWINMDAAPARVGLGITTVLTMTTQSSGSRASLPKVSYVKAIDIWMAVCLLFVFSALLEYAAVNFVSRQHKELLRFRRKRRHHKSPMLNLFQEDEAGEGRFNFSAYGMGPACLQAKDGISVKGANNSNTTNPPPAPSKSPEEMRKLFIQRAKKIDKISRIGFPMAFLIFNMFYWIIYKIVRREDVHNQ
Experimental: as §2, with “The medium was exchanged after 4–6 h and cells were used for experiments 24–48 h after transfection.” left out
as §3, with “recordings.” for “recordings. Experiments were performed at room temperature.”

[10] = system: α1β^x channels; test: as above; type: cell-based, human; conditions: 100 μM glycine + 100 μM picrotoxinin compared to 100 μM glycine alone
Experimental: as §1
HEK-293 cells were transiently transfected using a modified calcium-phosphate precipitation method. Transfection was performed at a confluency of 50–75%, 24 h after seeding of 200,000 cells on glass cover slips in 35 mm culture dishes or 1.5 × 10^6 cells per 10 cm dish. […]
as §3, with “recordings.” for “recordings. Experiments were performed at room temperature.”

[11] = system: hyperekplexia phenotype; set-up: method as in Bode and Lynch, 2014; conditions: clinical, gain-of-function and loss-of-function mutations; ref Bode and Lynch, 2014; cited from earlier work
[12] = system: heteromeric αβ channels versus homomeric α subunit GlyRs; set-up: method as in Pribilla et al., 1992; conditions: heteromeric αβ channels almost unaffected; ref Pribilla et al., 1992; cited from earlier work
[13] = in the presence of eGFP-gephyrin, remaining current, 100 μM glycine + 100 μM picrotoxinin versus 100 μM glycine alone
[14] = residual current, 100 μM picrotoxinin + 100 μM glycine versus 100 μM glycine alone

T4 sequence (P48167 23-497 A477P, one chain of several): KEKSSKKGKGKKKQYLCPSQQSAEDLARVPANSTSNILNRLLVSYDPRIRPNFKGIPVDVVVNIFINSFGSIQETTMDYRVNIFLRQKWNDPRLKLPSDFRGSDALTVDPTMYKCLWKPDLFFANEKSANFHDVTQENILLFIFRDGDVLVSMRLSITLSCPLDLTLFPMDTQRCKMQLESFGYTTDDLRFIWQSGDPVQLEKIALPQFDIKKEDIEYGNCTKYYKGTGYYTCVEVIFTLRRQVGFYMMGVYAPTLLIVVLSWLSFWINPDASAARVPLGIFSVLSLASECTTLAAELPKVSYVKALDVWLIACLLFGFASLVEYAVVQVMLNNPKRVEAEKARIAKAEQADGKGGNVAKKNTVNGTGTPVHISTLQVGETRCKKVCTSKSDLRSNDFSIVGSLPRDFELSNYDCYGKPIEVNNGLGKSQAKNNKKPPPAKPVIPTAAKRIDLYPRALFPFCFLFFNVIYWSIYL
T2 sequence (P48167 23-497 S343F, one chain of several): as the sequence (P48167 23-497 A477P, one chain of several) above, with S321F, P455A counted along it
T6 sequence (P48167 23-497 Y274S, one chain of several): as the sequence (P48167 23-497 A477P, one chain of several) above, with Y252S, P455A counted along it
T8 sequence (P48167 23-497 Y274S, one chain of several): as the sequence (P48167 23-497 A477P, one chain of several) above, with Y252S, P455A counted along it
T1 sequence (P48167 23-497, one chain of several): as the sequence (P48167 23-497 A477P, one chain of several) above, with P455A counted along it
T5 sequence (P48167 23-497 A477P, one chain of several): as the sequence (P48167 23-497 A477P, one chain of several) above
T3 sequence (P48167 23-497, one chain of several): as the sequence (P48167 23-497 A477P, one chain of several) above, with P455A counted along it
T7 sequence (P48167 23-497 S343F, one chain of several): as the sequence (P48167 23-497 A477P, one chain of several) above, with S321F, P455A counted along it

## NCC(=O)O [glycine]
[1]
  Imax: 2.9 ± 1.0 nA
[2]
  Imax: 4.1 ± 0.7 nA
[3]
  Imax: 4.1 ± 0.4 nA
[4]
  Imax: 9.5 ± 1.2 nA
[5]
  Imax: 6.6 ± 1.1 nA
[6]
  Imax: 3.7 ± 0.9 nA
[7]
  Imax: 5.1 ± 0.7 nA
[8]
  Imax: 4.7 ± 0.6 nA

## C=C(C)[C@@H]1[C@H]2OC(=O)[C@@H]1[C@]1(O)C[C@H]3O[C@]34C(=O)O[C@H]2[C@]14C [picrotoxinin]
[9]
  reduction in current amplitude of the original value (block of the glycine-gated response): 29.22%
[1]; [13]
  Ipicrotoxinin + glycine/ Iglycine: 72 ± 7%
[2]; [13]
  Ipicrotoxinin + glycine/ Iglycine: 73 ± 4%
[3]; [14]
  I 100 μM picrotoxinin + glycine/I 100 μM glycine: 90 ± 11%
[4]; [14]
  I 100 μM picrotoxinin + glycine/I 100 μM glycine: 86 ± 10%
[5]; [13]
  Ipicrotoxinin + glycine/ Iglycine: 92 ± 17%
[6]; [13]
  Ipicrotoxinin + glycine/ Iglycine: 84 ± 9%
[7]; [14]
  I 100 μM picrotoxinin + glycine/I 100 μM glycine: 111 ± 15%
[8]; [14]
  I 100 μM picrotoxinin + glycine/I 100 μM glycine: 99 ± 19%
[10]
  picrotoxinin block: 0–19%

## O=C1CN=C(c2ccccc2Cl)c2cc([N+](=O)[O-])ccc2N1 [clonazepam]
[11]
  treatment of the hyperekplexia phenotype: effective treatment in many cases

## picrotoxin
[12]
  fold less effective on heteromeric αβ channels than on homomeric α subunit GlyRs: 50–200 fold
